Experiment: xn = mol fraction of the nth substance listed

C=Cn1cc[n+](CCCC)c1.NCC(=O)[O-] + O
101.3 kPa
Conditions	electrical conductivity [S/m]	viscosity [mPa·s]
293.15 K, x1 = 0.5	–	59.3
293.15 K, x1 = 0.9	–	1599
303.15 K, x1 = 0.5	2.58	43.4
303.15 K, x1 = 1	0.009	9300
308.15 K, x1 = 0.1	1.11	–
308.15 K, x1 = 0.7	1.99	–
308.15 K, x1 = 0.9	0.48	–
308.15 K, x1 = 1	0.012	–
318.15 K, x1 = 0.5	3.58	–
333.15 K, x1 = 0.3	–	10.48
333.15 K, x1 = 1	–	1753
343.15 K, x1 = 0.3	–	10.08
343.15 K, x1 = 1	–	1089
353.15 K, x1 = 0.5	–	21.66
353.15 K, x1 = 0.9	–	520
353.15 K, x1 = 1	–	730

CC(=O)[O-].CCOCCn1cc[n+](C)c1 + O
100 kPa
Conditions	electrical conductivity [S/m]	viscosity [mPa·s]
293.15 K, x1 = 0.9129	0.288	35.75
293.15 K, x1 = 0.9447	0.25	36.71
298.15 K, x1 = 0.9447	0.31	28.98
303.15 K, x1 = 0.9447	0.394	23.12
308.15 K, x1 = 0.8821	0.586	17.7
313.15 K, x1 = 0.8524	0.764	14.07
313.15 K, x1 = 0.8821	0.719	14.45
313.15 K, x1 = 1	0.568	15.8

CC(=O)[O-].COCCn1cc[n+](C)c1 + O
100 kPa
Conditions	electrical conductivity [S/m]	viscosity [mPa·s]
293.15 K, x1 = 0.8395	0.408	54.79
293.15 K, x1 = 0.8942	0.338	58.87
303.15 K, x1 = 0.8942	0.495	32.66
308.15 K, x1 = 0.8659	0.636	25.93
318.15 K, x1 = 0.8659	0.925	17.73

CCCCC(CC)COC(=O)CC(C(=O)OCC(CC)CCCC)S(=O)(=O)[O-].CCCC[n+]1ccn(C)c1 (stereo not drawn) + O
99.6 kPa, x1 = 0.8687
Conditions	viscosity [mPa·s]
293.15 K	3442
303.15 K	1454

CCCCCCCCCCCCCCCC[N+](C)(C)C.[Br-] + O
Conditions	viscosity [mPa·s]
298.15 K, 100 kPa, x1 = 7.21e-06	0.896
298.15 K, 100 kPa, x1 = 2.162e-05	0.9
298.15 K, 100 kPa, x1 = 7.207e-05	0.8804
298.15 K, 101 kPa, x1 = 1.46e-05	0.905
298.15 K, 101 kPa, x1 = 1.64e-05	0.9071
298.15 K, 101 kPa, x1 = 1.802e-05	0.9069
298.15 K, 101 kPa, x1 = 3.622e-05	0.9141
298.15 K, 101 kPa, x1 = 5.496e-05	0.9181
298.15 K, 101 kPa, x1 = 6.937e-05	0.9203
298.15 K, 101 kPa, x1 = 9.225e-05	0.9267
298.15 K, 101 kPa, x1 = 0.0001067	0.933
298.15 K, 101 kPa, x1 = 0.0001193	0.9362
298.15 K, 101 kPa, x1 = 0.0001429	0.9436
298.15 K, 101 kPa, x1 = 0.0001602	0.9481
298.15 K, 101 kPa, x1 = 0.0001802	0.9511
298.15 K, 101 kPa, x1 = 0.0002057	0.9556
298.15 K, 101 kPa, x1 = 0.000211	0.9553
298.15 K, 101 kPa, x1 = 0.000245	0.9662
298.15 K, 101 kPa, x1 = 0.0002573	0.9651
298.15 K, 101 kPa, x1 = 0.0002724	0.9675
303.15 K, 100 kPa, x1 = 7.207e-05	0.7984
308.15 K, 100 kPa, x1 = 7.21e-06	0.742
308.15 K, 100 kPa, x1 = 2.162e-05	0.745
308.15 K, 100 kPa, x1 = 7.207e-05	0.7583

298.15 K, 101 kPa, frequency 0.001 MHz
Conditions	electrical conductivity [S/m]
x1 = 1.09e-06	0.001
x1 = 2.34e-06	0.00165
x1 = 3.39e-06	0.00255
x1 = 4.43e-06	0.00305
x1 = 5.57e-06	0.00366
x1 = 6.72e-06	0.00441
x1 = 7.97e-06	0.00511
x1 = 8.91e-06	0.00577
x1 = 1.12e-05	0.00697
x1 = 1.213e-05	0.00757
x1 = 1.307e-05	0.00823
x1 = 1.411e-05	0.00873
x1 = 1.526e-05	0.00943
x1 = 1.63e-05	0.00978
x1 = 1.734e-05	0.0102
x1 = 1.922e-05	0.0105
x1 = 1.995e-05	0.0108
x1 = 2.172e-05	0.0111
x1 = 2.276e-05	0.0113
x1 = 2.443e-05	0.0115
x1 = 2.599e-05	0.0117
x1 = 2.734e-05	0.012
x1 = 2.859e-05	0.0122

CCCCCCCCCCCCCCCC[n+]1ccccc1.[Br-] + O
100 kPa, x1 = 9.009e-05
Conditions	electrical conductivity [S/m]
298.15 K	0.021
303.15 K	0.021
308.15 K	0.022
313.15 K	0.024

CCCCCCCCCCCCCCCC[n+]1ccccc1.[Cl-] + O
Conditions	electrical conductivity [S/m]
293.15 K, 100 kPa, x1 = 3.6e-06	0.0028
293.15 K, 100 kPa, x1 = 7.21e-06	0.005
293.15 K, 100 kPa, x1 = 1.442e-05	0.0091
298.15 K, 100 kPa, x1 = 3.6e-06	0.0028
298.15 K, 100 kPa, x1 = 7.21e-06	0.0051
298.15 K, 100 kPa, x1 = 1.081e-05	0.0076
298.15 K, 100 kPa, x1 = 1.442e-05	0.0098
298.15 K, 100 kPa, x1 = 9.009e-05	0.02
303.15 K, 100 kPa, x1 = 3.6e-06	0.003
303.15 K, 100 kPa, x1 = 7.21e-06	0.0057
303.15 K, 100 kPa, x1 = 1.081e-05	0.0083
303.15 K, 100 kPa, x1 = 9.009e-05	0.021
308.15 K, 100 kPa, x1 = 3.6e-06	0.0034
308.15 K, 100 kPa, x1 = 7.21e-06	0.0065
308.15 K, 100 kPa, x1 = 1.081e-05	0.0095
308.15 K, 101 kPa, x1 = 5.4e-07	0.000222
308.15 K, 101 kPa, x1 = 9e-07	0.00029
308.15 K, 101 kPa, x1 = 1.62e-06	0.0004
308.15 K, 101 kPa, x1 = 2.34e-06	0.000465
308.15 K, 101 kPa, x1 = 2.88e-06	0.000581
308.15 K, 101 kPa, x1 = 3.78e-06	0.000705
308.15 K, 101 kPa, x1 = 4.5e-06	0.000794
308.15 K, 101 kPa, x1 = 5.59e-06	0.000937
308.15 K, 101 kPa, x1 = 6.85e-06	0.00106
308.15 K, 101 kPa, x1 = 7.93e-06	0.001222
308.15 K, 101 kPa, x1 = 9.01e-06	0.001438
308.15 K, 101 kPa, x1 = 1.009e-05	0.00159
308.15 K, 101 kPa, x1 = 1.117e-05	0.001701
308.15 K, 101 kPa, x1 = 1.333e-05	0.00209
308.15 K, 101 kPa, x1 = 1.55e-05	0.00219
308.15 K, 101 kPa, x1 = 1.766e-05	0.00237
308.15 K, 101 kPa, x1 = 1.982e-05	0.00248
308.15 K, 101 kPa, x1 = 2.18e-05	0.00259
308.15 K, 101 kPa, x1 = 2.397e-05	0.00264
308.15 K, 101 kPa, x1 = 2.595e-05	0.00278
308.15 K, 101 kPa, x1 = 3.009e-05	0.00297
308.15 K, 101 kPa, x1 = 3.406e-05	0.00314
308.15 K, 101 kPa, x1 = 3.802e-05	0.00328
308.15 K, 101 kPa, x1 = 4.18e-05	0.00342
308.15 K, 101 kPa, x1 = 4.559e-05	0.00356
308.15 K, 101 kPa, x1 = 4.919e-05	0.00369
308.15 K, 101 kPa, x1 = 5.099e-05	0.00375
308.15 K, 101 kPa, x1 = 6e-05	0.00403
308.15 K, 101 kPa, x1 = 6.847e-05	0.00432
308.15 K, 101 kPa, x1 = 7.658e-05	0.00454
308.15 K, 101 kPa, x1 = 8.433e-05	0.00477
308.15 K, 101 kPa, x1 = 9.189e-05	0.00497
308.15 K, 101 kPa, x1 = 9.91e-05	0.00516
308.15 K, 101 kPa, x1 = 0.000106	0.00533
308.15 K, 101 kPa, x1 = 0.0001126	0.0055
313.15 K, 100 kPa, x1 = 9.009e-05	0.023
